Assay results as given in paper PMC11382315 (Heliyon, 2024).

Legend:
HSP90AA1 [1] = target: T1, HSP90AA1 (Homo sapiens, UniProt P07900); test: Microscale thermophoresis; format: binding
HSP90AA1 [2] = target: T1, HSP90AA1; test: Limited proteolysis-mass spectrometry; format: binding; conditions: lysate of dsDNA/dsRNA-stimulated primary human thyrocytes, 0.33 nmol/μg total protein
primary human thyrocytes = test: Observed cytotoxic effects in stimulated primary human thyrocytes; format: cell-based; conditions: two doses: 10 and 40 μM (β-sitosterol 50 and 150 μM)

Kd (HSP90AA1 [1]) [µM] | KD (affinity with HSP90AA1) (HSP90AA1 [1]; His-tag labeled HSP90AA1 50 nM, ligand 30 nM to 1 mM, PBS) | Compound | interaction with HSP90AA1 by Lip-MS (HSP90AA1 [2]) | cytotoxic effects (primary human thyrocytes)
294 | – | O=c1cc(-c2ccc(O)c(O)c2)oc2cc(O)cc(O)c12 [luteolin] | identified as a common interacting protein target | –
123 | – | O=c1c(O)c(-c2ccc(O)cc2O)oc2cc(O)cc(O)c12 [morin] | identified as a common interacting protein target | without observed cytotoxic effects
169 | – | O=c1c(O)c(-c2ccc(O)cc2)oc2cc(O)cc(O)c12 [kaempferol] | – | without observed cytotoxic effects
– | – | O=c1c(O)c(-c2ccc(O)c(O)c2)oc2cc(O)cc(O)c12 [quercetin] | identified as a common interacting protein target | without observed cytotoxic effects
– | no binding affinity | CC[C@H](CC[C@@H](C)[C@H]1CC[C@H]2[C@@H]3CC=C4C[C@@H](O)CC[C@]4(C)[C@H]3CC[C@]12C)C(C)C [β-sitosterol] | – | without observed cytotoxic effects
